Data on two compounds can be found in US4847302A, “Use of certain compounds in livestock food as growth promotants for better feed utilization and improved carcass composition” (Merck & Co., Inc., priority 1988, dated 1989).

The subject of data set [1] is Isolated Chicken Hepatocytes. Kind of data set: Inhibition of lipogenesis (14C acetate incorporation) in isolated chicken hepatocytes. Type of data set: cell-based. The following applies: for inhibition at 0.01 µM / inhibition at 0.05 µM / inhibition at 0.25 µM: Gallus gallus, Hepatocyte, 2 h, Test 1, read-out: percent change compared to control, 14C acetate incorporation in fatty acids. On the procedure:
Determination of anti-lipogenic activity in hepatocytes
Hepatocytes were isolated from chicken liver using the procedure for adipocytes and incubated for 2 hours at 37° C. in the presence of ^14 C acetate and test compounds. […] Isoproterenol, at the same concentrations, was used as a positive control. After incubation, 8 ml Doles reagent (isopropanol:hexane:H2 SO4, 40:10:1) was added and incubation vials were shaken at room temperature for 30 minutes. Vial contents were poured into 50 ml screw-cap tubes. Vials were then rinsed with 6 ml hexane which was poured into the appropriate 50 ml tube. Tubes were shaken by hand, 10 ml H2 O was added, and tubes were shaken again. After phase separation, 2 ml of the upper (hexane) phase was removed to scintillation vials. Hexane was evaporated by a gentle air flow and the remaining lipids were resuspended in 10 ml Scinti Verse II. ^14 C was counted in a Packard liquid scintillation counter. Data are reported as CPM of ^14 C acetate incorporated into total lipids.

For data set [2], the system named is Isolated Swine Adipocytes. Kind of data set: Stimulation of lipolysis (glycerol production) in isolated swine adipocytes. As to conditions: Sus scrofa, Adipocyte, 2 h, Test 1, read-out: percent increase compared to control, glycerol production. Type of data set: cell-based. On the procedure: (§1) Fat was collected from freshly killed animals as follows: epididymal and perirenal fat from 150 to 200 g male rates; perirenal fat from 20 to 25 kg whether lambs, and perirenal and omental fat from 35 to 50 kg gilts. Immediately after collection, fat was placed in a siliconized beaker (all glassware was siliconized) containing Krebs-Ringer bicarbonate solution (KRB; pH 7.4) at 37° C. Fat was transferred to a clean beaker and finely chopped with scissors. Chopped fat was then used as such (whole adipose preparation) or treated with collagenase (isolated adipocytes).
(§2) Chopped fat was placed in a shaker containing 70 ml cell dispersion medium (CDM; 5 mM glucose, 0.1% collagenase, 4% bovine serum albumin (BSA), in KRB) and incubated at 37° C. for 1 hour with gentle shaking. Fat was then filtered to remove clumps and washed 4 times with washing medium (WM; 2.5 mM glucose, 1% BSA, in KRB) and 1 time with final suspension medium (FSM; 2.5 mM glucose, 2% essentially fatty acid free BSA, in KRB). Isolated adipocytes were then resuspended in the required amount of FSM (1 ml/flask, 3 flasks/treatment).
(§3) Whole adipose tissue from the rat (0.3 ml) or isolated adipocytes from sheep or swine (1 ml) were placed in plastic scintillation vials containing FSM (1.7 or 1 ml, respectively) and test compounds, and incubated at 37° C. for 2 hours. […] Isoproterenol, at the same concentrations, was used as a positive control. After incubation, media was removed and assayed for glycerol by a fluorometric modification of the method of Wieland (1974. Glycerol UV-method. pp. 1404. In: Bergmeyer (Ed.) Methods of Enzymatic Analysis. Verlag Chemie Weinham, Academic Press, New York).

Data set [3] concerns Isolated Ovine Adipocytes. Kind of data set: Stimulation of lipolysis (glycerol production) in isolated ovine adipocytes. It counts as cell-based, sheep. As to conditions: Test 1. The method, then: as §1, §2, §3
The subject of the next data set is Rat Adipose Tissue. In words: Stimulation of lipolysis (glycerol production) in chopped rat adipose tissue. Type of data set: cell-based. As to conditions: Rattus norvegicus, 2 h, Test 1, read-out: percent increase compared to control, glycerol production. The method, then:
as §1
Whole adipose tissue from the rat (0.3 ml) or isolated adipocytes from sheep or swine (1 ml) were placed in plastic scintillation vials containing FSM (1.7 or 1 ml, respectively) and test compounds, and incubated at 37° C. for 2 hours. […] Isoproterenol, at the same concentrations, was used as a positive control. After incubation, media was removed and assayed for glycerol by a fluorometric modification of the method of Wieland (1974. Glycerol UV-method. pp. 1404. In: Bergmeyer (Ed.) Methods of Enzymatic Analysis. Verlag Chemie Weinham, Academic Press, New York). […]

Data set [4] is described as follows: In vivo testing in rats: growth, feed conversion and carcass composition. Further details: species or system rat (male Charles River CD). The following applies: in diet, dose equivalent to 20 ppm clenbuterol (clenbuterol: 10). The text has this: Eighty intact, male Charles River CD rats, 75-90 g, were housed and maintained on rat chow and water ad libitum. After four days acclimation ten rats per group were randomized by weight to treatment and pen. Compounds to be tested were premixed and added to ground rat chow using doses equivalent to 20 ppm of clenbuterol on a molecular weight basis. It had previously been determined 10 ppm of clenbuterol was the minimum dose needed to give maximum improvements in gain and feed conversion. Therefore, the results of any compound tested should cause responses similar to clenbuterol if the compound has half or more the activity of clenbuterol.

Data set [5] is described as follows: Growth, feed conversion and carcass composition of broilers raised in floor pens for 7 weeks. Type of data set: in vivo. As to conditions: 7 weeks. The method, then: Compound V (bitolterol) was compared to clenbuterol for effects on growth, feed conversion and carcass composition of broilers raised in floor pens for 7 weeks. […] Bitolterol at the highest dose improved rate of gain 2.6% (P 0.01), feed conversion 3.8% (P 0.05) and carcass protein 4.9% (P 0.10).
Clenbuterol at 0.5 ppm in the diet was administered for 7 weeks to one group and only during the last 4 weeks to another group. […] Clenbuterol given for 7 weeks improved feed conversion 3.5% (P 0.05) and appeared to improve (not significant) rate of gain 0.4%, carcass weight 0.7% and carcass protein 4.0% and to decrease (not significant) carcass fat 7.1%.

Data set [6] in a line: Growth promoting activity / feed utilization in livestock (general statements). It counts as in vivo.
The nature of data set [7]: Toxicity (general statement).

The structures appear in SMILES notation.

`Cc1ccc(C(=O)Oc2ccc(C(O)CNC(C)(C)C)cc2OC(=O)c2ccc(C)cc2)cc1` (stereo not shown) [Compound V, Bitolterol]: in data set [1], the inhibition at 0.01 µM turned out to be 0%, the inhibition at 0.05 µM turned out to be 34% and the inhibition at 0.25 µM amounted to 64.6%. For the same compound, in data set [2], the activation at 0.01 µM was determined as 7%, the activation at 0.05 µM turned out to be 47% and the activation at 0.25 µM was 147%. For the same compound, the activation at 0.05 µM in data set [3] (Ovis aries, Adipocyte, 2 h, 0.05 μM, read-out: percent increase compared to control, glycerol production) stood at 435%. In addition, the “percent increase compared to control, glycerol production” value in data set [3] (0.01 μM) is “inactive”. For the same compound, in the data set on Rat Adipose Tissue, the activation at 0.01 µM worked out at 17%, the activation at 0.05 µM was 33% and the activation at 0.25 µM amounted to 111%. Also, the Gain in data set [4] (Test 1, control 7.3) turned out to be 7.3 g/day. The “Feed Intake” value in data set [4] (Test 1, control 18.6) is recorded as 18.7 g/day. In data set [4] (Test 1, control 191.8), the Weight was 192.2 g. Further, in data set [4] (Test 1), the “Carcass Composition % of Change over Control, Fat” value was -4.3% and the “Carcass Composition % of Change over Control, Protein” value is 3.1%. In addition, in data set [5] (0.5, 1.0 and 2.0 ppm in diet), the “carcass fat (in words)” value was “did not reduce carcass fat”; the “rate of gain, feed conversion and carcass protein, dose response” value was “improved rate of gain, feed conversion and carcass protein in a dose-related manner”. Moreover, the “improvement of rate of gain” value in data set [5] (2.0 ppm in diet (highest dose), P 0.01) is 2.6%. Further, the “improvement of feed conversion” value in data set [5] (2.0 ppm in diet (highest dose), P 0.05) is given as 3.8%. For the same compound, the “improvement of carcass protein” value in data set [5] (2.0 ppm in diet (highest dose), P 0.10) was 4.9%. Further, the “responses compared with clenbuterol at 0.5 ppm” value in data set [5] (2.0 ppm in diet) is reported as “better than those observed with clenbuterol at 0.5 ppm”. Besides, the “activity in all species under consideration” value in data set [6] was “high activity in all species under consideration”. In addition, the level of activity result in data set [6] (in vivo) was “high level of activity”. Besides, the level of toxicity entry in data set [7] is given as “very low level of toxicity”.
Turning to `CC(CCc1ccccc1)NCC(O)c1ccc(N)nc1` (stereo not shown) [IV], in data set [1], the inhibition at 0.01 µM was found to be 33.7%, the inhibition at 0.05 µM amounted to 54.3% and the inhibition at 0.25 µM came to 63.2%. Also, in data set [1] (chicken hepatocytes), the “antilipogenic activity relative to clenbuterol” value is “greater than 125 times” and the “antilipogenic activity relative to isoproterenol” value is recorded as “five times”. For the same compound, in data set [2], the activation at 0.01 µM was 260%, the activation at 0.05 µM was 333% and the activation at 0.25 µM was found to be 80%. For the same compound, in data set [3] (Ovis aries, Adipocyte, 2 h, 0.01 μM, read-out: percent increase compared to control, glycerol production), the activation at 0.01 µM came to 820%. Moreover, in the data set on Rat Adipose Tissue, the activation at 0.01 µM came to 114%, the activation at 0.05 µM amounted to 219% and the activation at 0.25 µM was found to be 334%. Also, the Gain in data set [4] (Test 2, control 7.5) is reported as 8.4 g/day. Besides, in data set [4] (Test 2, control 19.3), the “Feed Intake” value is recorded as 20.7 g/day. Also, the Weight in data set [4] (Test 2, control 202.3) turned out to be 214.7 g. Besides, in data set [4] (Test 2), the “Carcass Composition % of Change over Control, Fat” value is given as -16.1% and the “Carcass Composition % of Change over Control, Protein” value came to 5.0%. Further, the “activity in all species under consideration” value in data set [6] is reported as “high activity in all species under consideration”.
